The numbers were not newly measured in publication PMC3066546, “Development of modified nucleosides that have supremely high anti-HIV activity and low toxicity and prevent the emergence of resistant HIV mutants” (Proceedings of the Japan Academy. Series B, Physical and …, 2011), which cites them from elsewhere.

For one series, the system named is HIV-1LAI. To be noted: MTT assay, MT-4 cells. A general note: Formazan colour is commonly taken as a measure of viable cells.
A further series concerns HXB2 (wild type HIV). Also noted: method as in PMID 11087576, PMID 11577734, PMID 15200030. To be noted: MAGI assay.
The test system of a further series is KH65R drug-resistant HIV. Also noted: method as in PMID 11087576, PMID 11577734, PMID 15200030. To be noted: MAGI assay.
The next series relates to L74V drug-resistant HIV. Also noted: method as in PMID 11087576, PMID 11577734, PMID 15200030. To be noted: MAGI assay.
Series [1] has as its system 41/215 drug-resistant HIV. Also noted: method as in PMID 11087576, PMID 11577734, PMID 15200030. To be noted: MAGI assay.
Another series relates to M184V drug-resistant HIV. Also noted: method as in PMID 11087576, PMID 11577734, PMID 15200030. Particulars: MAGI assay.
Another series concerns M184I drug-resistant HIV. Also noted: method as in PMID 11087576, PMID 11577734, PMID 15200030. Particulars: MAGI assay.
In series [2] the test system is 41/69/ 125/SG drug-resistant HIV. Also noted: method as in PMID 11087576, PMID 11577734, PMID 15200030. Particulars: MAGI assay.
For series [3], the system named is MDR (multidrug-resistant HIV). Particulars: MAGI assay.
The target in series [4] is Y181C (non-nucleoside reverse transcriptase inhibitor-resistant). Also noted: method as in PMID 11087576, PMID 11577734, PMID 15200030. To be noted: MAGI assay.
In series [5] the test system is HIVs isolated from seven heavily drug-experienced patients. Also noted: method as in PMID 11302824, PMID 12455229, PMID 15457679. Particulars: seven heavily drug-experienced AIDS patients, as efficiently as against wild-type HIV.
The test system of a further series is ICR mice. Particulars: for Mortality (%): six-week-old ICR male mice; for survival of mice: single dosage of 3–100 mg kg−1, both intravenous and oral.
The subject of another series is HIV-1wild. Also noted: method as in PMID 18487070. To be noted: Table 7; read-out: Anti-HIV activity (MAGI assay, µg) HIV-1wild.
The test system of a further series is HIV-1MDR. Also noted: method as in PMID 18487070. To be noted: Table 7; read-out: Anti-HIV activity (MAGI assay, µg) HIV-1MDR.
The next series concerns HIV-1M184V. Also noted: method as in PMID 18487070. Particulars: Table 7; read-out: Anti-HIV activity (MAGI assay, µg) HIV-1M184V.
The subject of series [6] is calf thymus DNA polymerase α. Also noted: method as in earlier work. To be noted: calf thymus enzyme.
The test system of series [7] is recombinant rat DNA polymerase β. Also noted: method as in earlier work. Particulars: recombinant rat enzyme.
Series [8] has as its system adenosine deaminase. Also noted: method as in PMID 563233, PMID 17548498, PMID 18487070.
Series [9] deals with adenosine deaminase. Particulars: 4′EdA to 4′EdI, 4′Ed2AA to 4′EdG.
For another series, the system named is HIV. Also noted: method as in PMID 7764216. Particulars: Table 1.
For series [10] the following is noted: cytotoxic concentration, Table 1.
Setting [11] is: intraveneous administration, 1 mg/Kg.
[12] abbreviates: intraveneous administration, 3 mg/Kg.
Setting [13] is: intraveneous administration, 10 mg/Kg.
The mark [14] stands for this setting: intraveneous administration, 100 mg/Kg.

Where two headings read alike, the source gives them in different places.

The CC50 is the concentration that lowers cell viability or growth by half. Take `C#C[C@]1(CO)O[C@@H](n2cnc3c(=O)[nH]c(N)nc32)C[C@@H]1O` [4′EdG, 2′-deoxy-4′-C-ethynylguanosine]: the EC50 in the series on HIV-1LAI (Table 3) is 1.4 nM; in the series with HXB2 (wild type HIV) it was 7 nM; in the series on KH65R drug-resistant HIV it was 1 nM; in the series on L74V drug-resistant HIV, 1.2 nM; in series [1], 19 nM; in the series with M184V drug-resistant HIV it was 8 nM. Further, the EC50 with M184I drug-resistant HIV was 4.1 nM; in series [2], 6.8 nM; in series [3] it was 4.8 nM; in series [4], 10 nM. Besides, the “potency against HIVs isolated from patients” value in [5] is “highly potent”. For the same molecule, the CC50 in the series with MT-4 cells (Table 3) is 1500 nM; with Hela cells (Table 4, Hela cells) it was 52000 nM. Further, the “Mortality (%)” value is 0% with ICR mice (setting [11]); 100% in the series with ICR mice (setting [12]); 100% in the series with ICR mice (setting [13]); 100% with ICR mice (setting [14]); 0% in the series with ICR mice (oral administration, 1 mg/Kg); 100% in the series with ICR mice (oral administration, 3 mg/Kg). The “Mortality (%)” value with ICR mice (oral administration, 10 mg/Kg) was 100%; with ICR mice (oral administration, 100 mg/Kg), 100%. Moreover, the “survival days of mice after administration” value in the series with ICR mice (intraveneous, 3 mg/Kg) is 4 days; in the series on ICR mice (intraveneous, 10 mg/Kg) it was 2 days; in the series on ICR mice (intraveneous, 100 mg/Kg) it was 1 days; with ICR mice (oral, 3 mg/Kg), 4 days; with ICR mice (oral, 10 mg/Kg), 4 days; in the series with ICR mice (oral, 100 mg/Kg), 1 days.
With `Nc1ccn([C@@H]2CS[C@H](CO)O2)c(=O)n1` [Compound 3TC, 2′,3′-dideoxy-3′-thia-L-cytidine, reference compound], the EC50 was 100 nM in the series with HIV-1LAI (Table 2); 710 nM in the series with HXB2 (wild type HIV); over 100000 nM in the series on M184V drug-resistant HIV; over 100000 nM in the series on M184I drug-resistant HIV; 9900 nM in series [2]; 1100 nM in [3]. The EC50 in the series on HIV-1wild was 1000 nM; in the series on HIV-1MDR it was 2800 nM; with HIV-1M184V, over 100000 nM. Moreover, the CC50 in the series with MT-4 cells and with Hela cells was over 100000 nM in each case.
As to `C#C[C@@]1(CO)C=C[C@H](n2cnc3c(N)nc(F)nc32)O1` [4′Ed42FA, 2′,3′-didehydrodideoxy-4′-C-ethynyl-2-fluoroadenosine], the EC50 was 800 nM in the series on HIV-1wild, 150 nM with HIV-1MDR and 1800 nM with HIV-1M184V.
Regarding `CC1(COP(=O)(O)OP(=O)(O)OP(=O)(O)O)OC(n2ccc(N)nc2=O)CC1O` (stereo not drawn) [4′MdCTP], the “chain termination of DNA polymerase α” value in series [6] is listed as “chain terminator”. The “chain termination of DNA polymerase β” value in series [7] is given as “chain terminator”.
Take `C#C[C@@]1(CO)CC[C@H](n2cnc3c(N)nc(F)nc32)O1` [4′Edd2FA, 2′,3′-dideoxy-4′-C-ethynyl-2-fluoroadenosine]: the EC50 in the series with HIV-1wild was 940 nM; with HIV-1MDR it was 8700 nM; in the series on HIV-1M184V it was 97000 nM.
`C#C[C@]1(CO)O[C@@H](n2ccc(N)nc2=O)C[C@@H]1O` [4′EdC, 4′-C-ethynyl-2′-deoxycytidine]: the EC50 in the series on HIV-1LAI (Table 2, listed as 4′-C-ethynyl-2′-deoxycytidine) was 4.8 nM; in the series on HXB2 (wild type HIV) it was 1.2 nM; in the series with KH65R drug-resistant HIV, 0.8 nM; in the series on L74V drug-resistant HIV, 1.3 nM; in [1] it was 6 nM; with M184V drug-resistant HIV, 2.4 nM. Moreover, the EC50 in the series with M184I drug-resistant HIV is 2.6 nM; in series [2] it was 15 nM; in series [4] it was 2.1 nM.
With `C#C[C@]1(CO)O[C@@H](n2ccc(N)nc2=O)[C@@H](O)[C@@H]1O` [4′EaraC, 4′-C-ethynyl D-arabino-furanosyl cytosine], the EC50 in the series on HIV-1LAI (Table 2) is 43 nM; in the series on HXB2 (wild type HIV), 7.1 nM; in the series with KH65R drug-resistant HIV, 15 nM; in the series with L74V drug-resistant HIV, 26 nM; in series [1], 26 nM; with M184V drug-resistant HIV, 710 nM. In addition, the EC50 in the series on M184I drug-resistant HIV is 480 nM; in series [2] it was 170 nM; in series [3], 7.9 nM; in series [4] it was 16 nM. The CC50 in the series with MT-4 cells (Table 2) is 2000 nM; in the series with Hela cells (Table 4, Hela cells), over 200000 nM.
For `C#C[C@]1(CO)O[C@@H](n2cnc3c(N)ncnc32)C[C@@H]1O` [4′EdA, 2′-deoxy-4′-C-ethynyladenosine], the EC50 was 9.8 nM in the series on HIV-1LAI (Table 2); 8 nM with HXB2 (wild type HIV); 3.3 nM in the series with KH65R drug-resistant HIV; 4 nM in the series on L74V drug-resistant HIV; 12 nM in [1]; 47 nM in the series on M184V drug-resistant HIV. The EC50 is 22 nM in the series with M184I drug-resistant HIV, 65 nM in series [2], 6.2 nM in series [3] and 11 nM in series [4]. Also, the “potency against HIVs isolated from patients” value in series [5] is reported as “highly potent”. Also, in the series on adenosine deaminase [8], the “time to complete deamination by adenosine deaminase” value is recorded as 60 min. Moreover, the CC50 is 16000 nM with MT-4 cells (Table 2); 16000 nM with MT-4 cells (Table 3); over 200000 nM in the series with Hela cells (Table 4, Hela cells). Moreover, the “Mortality (%)” value in the series with ICR mice (setting [11]) is listed as 0%; in the series on ICR mice (setting [12]), 0%; with ICR mice (setting [13]) it was 0%; with ICR mice (setting [14]), 0%; in the series with ICR mice (oral administration, 1 mg/Kg), 0%; with ICR mice (oral administration, 3 mg/Kg) it was 0%. In addition, the “Mortality (%)” value with ICR mice (oral administration, 10 mg/Kg) was 0%; in the series with ICR mice (oral administration, 100 mg/Kg), 0%. The survival of mice result in the series on ICR mice was “All eight mice survived”. The “conversion by adenosine deaminase in mice” value with adenosine deaminase [9] is listed as “easily converted to 4′EdI”.
With `C#C[C@]1(CO)O[C@@H](n2cnc3c(N)nc(Cl)nc32)C[C@@H]1O` [4′Ed2ClA, 2′-deoxy-4′-C-ethynyl-2-chloroadenosine], the EC50 with HIV-1wild is 1.9 nM; with HIV-1MDR, 8.4 nM; in the series with HIV-1M184V, 10 nM.
Take `C#C[C@]1(CO)O[C@@H](n2cnc3c(O)ncnc32)C[C@@H]1O` [4′EdI, 2′-deoxy-4′-C-ethynylinosine]: the EC50 with HIV-1LAI (Table 3) was 150 nM; with HXB2 (wild type HIV), 810 nM; with KH65R drug-resistant HIV, 250 nM; in the series on L74V drug-resistant HIV, 610 nM; in [1], 1300 nM; in the series with M184V drug-resistant HIV, 1600 nM. For the same molecule, the values for the EC50 (in the series with M184I drug-resistant HIV; in series [2]; in series [3]) were 1500 nM, 2200 nM and 510 nM, respectively. The CC50 was 216000 nM with MT-4 cells (Table 3) and over 200000 nM in the series on Hela cells (Table 4, Hela cells). For the same molecule, the “Mortality (%)” value with ICR mice (setting [11]) is recorded as 0%; in the series with ICR mice (setting [12]) it was 0%; in the series with ICR mice (setting [13]), 0%; in the series with ICR mice (setting [14]), 0%; in the series on ICR mice (oral administration, 1 mg/Kg), 0%; in the series with ICR mice (oral administration, 3 mg/Kg), 0%. In addition, the “Mortality (%)” value with ICR mice (oral administration, 10 mg/Kg) is listed as 0%; in the series on ICR mice (oral administration, 100 mg/Kg), 0%. The survival of mice entry with ICR mice is “All eight mice survived”.
For `CC1(COP(=O)(O)OP(=O)(O)OP(=O)(O)O)OC(n2ccc(N)nc2=O)C(O)C1O` (stereo not drawn) [4′MAraCTP], the “chain termination of DNA polymerase α” value in [6] was “chain terminator”. The “chain termination of DNA polymerase β” value in series [7] was “chain terminator”.
Consider `Cc1cn([C@H]2C=C[C@@H](CO)O2)c(=O)[nH]c1=O` [d4T, 2′,3′-didehydro-3′-deoxythymidine, reference compound], for which the “SI (CC50/EC50)” value in the series with HIV is over 120. For the same molecule, the EC50 is 4100 nM in the series with HIV (anti-HIV), 7600 nM with HIV-1wild, 64000 nM with HIV-1MDR and 5600 nM with HIV-1M184V. Further, the half-maximal cytotoxic concentration (CC50) in series [10] is over 500000 nM.
